This is an account of results in US20190231787A1, “METHODS AND COMPOUNDS FOR TREATING ALCOHOL USE DISORDERS AND ASSOCIATED DISEASES” (PHARMATROPHIX, INC., priority 2016, published 2019).

For assay [1], the system named is Jun kinase. The note with it: Shi et al., 2013; cited from earlier work.
Assay [2] addresses T1, p75NTR (Rattus norvegicus, UniProt P07174).
T1 construct: from tissue; host or cells: dorsolateral striatum (DLS) of living rats
T1 sequence (P07174 30-425): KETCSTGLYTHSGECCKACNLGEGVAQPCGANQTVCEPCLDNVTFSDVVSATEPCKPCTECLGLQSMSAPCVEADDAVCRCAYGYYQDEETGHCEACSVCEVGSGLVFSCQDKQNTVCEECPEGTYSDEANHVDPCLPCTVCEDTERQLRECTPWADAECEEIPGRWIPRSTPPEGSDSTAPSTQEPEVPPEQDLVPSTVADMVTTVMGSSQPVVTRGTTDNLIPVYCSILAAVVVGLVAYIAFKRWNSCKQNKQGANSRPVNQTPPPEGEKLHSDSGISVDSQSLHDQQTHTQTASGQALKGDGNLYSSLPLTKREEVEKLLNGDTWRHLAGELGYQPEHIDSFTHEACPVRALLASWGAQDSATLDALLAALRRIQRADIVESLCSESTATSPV
In words: Intermittent access to 20% alcohol 2BC (IA20%-2BC) binge drinking after intra-DLS infusion of LM11A-31. The class given is in vivo. The note with it: intra-DLS LM11A-31 30 μg/1 μl per side, vs vehicle. As to the method:
(§1) At 8 weeks of age, animals were given 24 hours of access to one bottle of 20% alcohol (v/v) and one bottle of tap water concurrently for a total of 21 sessions of 24 hours during a period of 7 weeks. Drinking sessions started at 12:00 P.M. on Monday, Wednesday, and Friday, with 24 or 48 hours (weekend) of alcohol deprivation between the drinking sessions. The water and alcohol bottles were weighed before the beginning of each drinking session, immediately after the first 30 minutes of access to alcohol and at the end of the session. Rats with escalation of alcohol consumption from session 1 to session 18, reaching a baseline of drinking that was higher than 3.5 g/kg/24 h, were selected for the studies.
(§2) Cannula implantation and microinfusions of BDNF and LM11A-31. Four holes were drilled for screws, and two holes were drilled for cannulae implantation (single cannula, C315GA; PlasticsOne). The coordinates for the DLS were +1.2 mm anterior to Bregma and 3.5 mm lateral to the medial suture. The cannulae were implanted into the lateral part of the dorsal striatum (−4.2 mm from the skull surface) and fixed with dental cement. After 1 week of recovery, the alcohol-drinking procedure resumed, and subjects were habituated to the microinjection procedure with two sham injections (injectors were lowered but no infusion took place). […]

Assay [3] has as its system p75NTR-mediated neuronal death. As to conditions: Knowles et al., 2013, Tep et al.; cited from earlier work.
Assay [4] has as its target T1, p75NTR. In words: IA-2BC 1% sucrose drinking after systemic administration of LM11A-31. The class given is in vivo. The note with it: LM11A-31 150 mg/kg systemic; IA 1% sucrose 2BC 7 weeks; 30 min access. As to the method: (§3) The procedure was similar to the IA20%-2BC paradigm described above, except that a sucrose (1%) solution was substituted for alcohol. Rats were tested for sucrose intake in response to intra-DLS administration of LM11A-31 or vehicle 1 week after the conclusion of the alcohol-drinking study. Animals were trained to drink sucrose for 2 weeks before the test day. An independent cohort of rats underwent IA-2BC sucrose-drinking paradigm for 7 weeks before systemic administration of LM11A-31.
Before the beginning of experiments, rats were habituated for 3 days to intraperitoneal administration by daily injections of saline (0.9% NaCl). LM11A-31 (50-150 mg/kg) or vehicle (0.9% saline) was administered intraperitoneally 2 hours before the beginning of the drinking session. Test days occurred once a week, with two alcohol-drinking sessions without treatment that were performed between injections to allow intake to return to baseline. For the highest dose of LM11A-31, vehicle and drug were tested in different animals.
To test whether systemic administration of LM11A-31 attenuates binge drinking of sucrose, rats had IA to 1% sucrose in a 2BC paradigm for 7 weeks, and sucrose consumption was measured after 30 min access following LM11A-31 injection.

In assay [5] the target is T1, p75NTR. In words: IA20%-2BC binge drinking after systemic (intraperitoneal) administration of LM11A-31. The assay is classed as in vivo. The note with it: 30 min. The method, then: as §1
Before the beginning of experiments, rats were habituated for 3 days to intraperitoneal administration by daily injections of saline (0.9% NaCl). LM11A-31 (50-150 mg/kg) or vehicle (0.9% saline) was administered intraperitoneally 2 hours before the beginning of the drinking session. Test days occurred once a week, with two alcohol-drinking sessions without treatment that were performed between injections to allow intake to return to baseline. For the highest dose of LM11A-31, vehicle and drug were tested in different animals. […]

The target of assay [6] is T1, p75NTR. In words: Intermittent access to 1% sucrose 2BC after intra-DLS administration of LM11A-31. The class given is in vivo. As to conditions: intra-DLS LM11A-31 30 μg/μl; IA-2BC 1% sucrose, 30 min; vs vehicle. As to the method:
as §3
as §2, with “place). The experimental microinfusions began after each rat reacquired a stable level of drinking. BDNF, LM11A-31, or PBS was infused via a 25 μl Hamilton syringe (#1702), 3 h (BDNF) or 2 h (LM11A-31) before the beginning of the alcohol-drinking session.” for “place).”

In assay [7] the target is T2, p75NTR (Homo sapiens, UniProt P08138).
T2 sequence (P08138 29-427): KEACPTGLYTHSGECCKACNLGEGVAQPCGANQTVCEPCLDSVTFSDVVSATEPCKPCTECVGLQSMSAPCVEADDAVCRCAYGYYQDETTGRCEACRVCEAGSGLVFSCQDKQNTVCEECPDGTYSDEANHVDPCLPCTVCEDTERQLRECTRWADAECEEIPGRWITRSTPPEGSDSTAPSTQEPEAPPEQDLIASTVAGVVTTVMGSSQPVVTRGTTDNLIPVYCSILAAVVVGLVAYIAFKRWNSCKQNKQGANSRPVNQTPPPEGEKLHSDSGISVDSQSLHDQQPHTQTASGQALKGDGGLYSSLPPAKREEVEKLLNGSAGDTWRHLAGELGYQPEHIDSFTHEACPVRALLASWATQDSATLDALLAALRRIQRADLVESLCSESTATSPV
As to conditions: Massa et al., 2006; Longo and Massa, 2013; cited from earlier work.

Assay [8] has as its system rats with a history of excessive alcohol drinking. Description: Operant self-administration of alcohol after intra-DLS administration of BDNF. As to conditions: intra-DLS BDNF 0.75 μg/side 3 hours before operant session; 2.5, 10 and 20% alcohol; rats after 5 weeks IA20%-2BC; vs vehicle (PBS). The assay is classed as in vivo, rat. As to the method: After 5 weeks of the intermittent access (IA) to 20% alcohol 2BC paradigm (IA20%-2BC), the rats were trained to self-administer alcohol. […] Rats were trained under a fixed ratio 3 schedule; i.e., rats had to press three times to receive one reward. Sessions lasted for the duration of 1 h at the beginning of the training and 30 min after the first 2 weeks. The number of presses on the levers and the number of alcohol deliveries were recorded using MED-PC IV software (Med-Associates).
Cannula implantation and microinfusions of BDNF and LM11A-31. Four holes were drilled for screws, and two holes were drilled for cannulae implantation (single cannula, C315GA; PlasticsOne). The coordinates for the DLS were +1.2 mm anterior to Bregma and 3.5 mm lateral to the medial suture. The cannulae were implanted into the lateral part of the dorsal striatum (−4.2 mm from the skull surface) and fixed with dental cement. […]
To test the possibility that BDNF signaling in the DLS is disrupted after chronic excessive alcohol drinking, the ability of the neurotrophic factor to control alcohol self-administration in rats with a history of excessive alcohol drinking was tested. […] The self-administration of three alcohol concentrations was measured. […]

For assay [9], the system named is rats with history of moderate (10%) alcohol drinking. As to conditions: exogenous BDNF into the DLS, shown previously; cited from earlier work.

Entries after “also recorded” stand apart in the source; their conditions may differ.

As to `CC[C@H](C)[C@H](N)C(=O)NCCN1CCOCC1` [LM11A-31, Tris[(2S,3S)-2-amino-3-methyl-N-(2-morpholinoethyl)pentanamide]tetra(monohydrogensulfate), monosulfate], in [1], the “phosphorylation of Jun kinase” value was “decreases”. Also, the binge-like alcohol intake result in assay [2] (2 h before 30 min alcohol binge-drinking session) was “significantly reduced”. For the same molecule, the concurrent water intake entry in assay [2] (2 h before 30 min alcohol session) is “without changing”. Besides, the p75NTR-mediated neuronal death result in assay [3] is reported as “blocks”. Further, in [4], the “binge consumption of sucrose” value is “did not alter” and the corresponding water intake result is “unaltered”. In assay [5] (LM11A-31 150 mg/kg intraperitoneally 2 hours before session, IA20%-2BC 7 weeks, vs vehicle), the “binge drinking of alcohol” value is on record as “significantly attenuated”. In addition, the water intake entry in assay [5] (LM11A-31 50-150 mg/kg intraperitoneally 2 hours before session, IA20%-2BC) is listed as “without altering”. The sucrose intake result in assay [6] was “unaltered”. Moreover, in assay [7], the “binding between p75NTR and neurotrophins, including BDNF” value was “disrupting the binding”.

B1: BDNF: Brain-derived neurotrophic factor; Human BDNF was purchased from Sigma-Aldrich (protein, UniProt P23560 19-247, looked up)
Neurotrophic factor BDNF …: APMKEANIRGQGGLAYPGVRTHGTLESVNGPKAGSRGLTSLADTFEHVIEELLDEDQKVRPNEENNKDADLYTSRVMLSSQVPLEPPLLFLLEEYKNYLDAANMSMRVRRHSDPARRGELSVCDSISEWVTAADKKTAVDMSGGTVTVLEKVPVSKGQLKQYFYETKCNPMGYTKEGCRGIDKRHWNSQCRTTQSYVRALTMDSKKRIGWRFIRIDTSCVCTLTIKRGR
For B1, in [8], the “amount of alcohol consumed” value is on record as “does not decrease; also recorded: did not decrease” and the “number of alcohol deliveries” value was “does not decrease; also recorded: did not decrease”. Besides, the operant alcohol self-administration result in [9] was “reduces”.
